Data published in ChEMBL document CHEMBL4002576, “Tetrahydropyranodiquinolin-8-amines as new, non hepatotoxic, antioxidant, and acetylcholinesterase inhibitors for Alzheimer's disease therapy” (Eur J Med Chem, 2017).
pIC50, pKi: −log10 of the molar value. The source made the active and inactive calls. No cut-off for these calls is given here.

Key:
[1] = molecular target: Acetylcholinesterase (Electrophorus electricus, UniProt O42275)
Description: Inhibition of Electrophorus electricus AChE using acetylthiocholine iodide as substrate pretreated for 10 mins followed by substrate addition measured after 15 mins by spectrophotometry based Ellman method

[2] = molecular target: Cholinesterase (Equus caballus, UniProt P81908); assay: Inhibition of horse serum BuChE using butyrylthiocholine as substrate pretreated for 10 mins followed by substrate addition measured after 15 mins by spectrophotometry based Ellman method; conditions: for pIC50: read-out: IC50
Chain of Cholinesterase (P81908 whole entry): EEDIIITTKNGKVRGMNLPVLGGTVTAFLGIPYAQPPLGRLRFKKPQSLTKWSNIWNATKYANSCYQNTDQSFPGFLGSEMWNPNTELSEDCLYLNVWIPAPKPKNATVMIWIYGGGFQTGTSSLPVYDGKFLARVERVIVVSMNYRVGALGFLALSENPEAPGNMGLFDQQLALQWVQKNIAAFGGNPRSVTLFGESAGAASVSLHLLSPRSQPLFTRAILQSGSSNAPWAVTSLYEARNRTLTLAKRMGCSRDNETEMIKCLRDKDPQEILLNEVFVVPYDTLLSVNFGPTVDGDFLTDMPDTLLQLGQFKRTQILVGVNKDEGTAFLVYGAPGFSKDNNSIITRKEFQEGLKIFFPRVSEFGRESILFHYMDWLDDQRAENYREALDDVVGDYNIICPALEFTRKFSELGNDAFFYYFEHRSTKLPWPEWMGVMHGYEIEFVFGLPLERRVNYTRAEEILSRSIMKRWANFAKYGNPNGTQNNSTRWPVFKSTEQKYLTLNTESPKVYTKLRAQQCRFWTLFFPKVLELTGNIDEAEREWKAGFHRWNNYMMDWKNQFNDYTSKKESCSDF

[3] = molecular target: T1, Acetylcholinesterase (Homo sapiens, UniProt P22303); assay: Inhibition of recombinant human AChE expressed in HEK293 cells using acetylthiocholine iodide as substrate pretreated for 5 mins followed by substrate addition measured after 5 mins by spectrophotometry based Ellman method; conditions: for pIC50: read-out: IC50; for IC50: hek293
T1 sequence (P22303 whole entry): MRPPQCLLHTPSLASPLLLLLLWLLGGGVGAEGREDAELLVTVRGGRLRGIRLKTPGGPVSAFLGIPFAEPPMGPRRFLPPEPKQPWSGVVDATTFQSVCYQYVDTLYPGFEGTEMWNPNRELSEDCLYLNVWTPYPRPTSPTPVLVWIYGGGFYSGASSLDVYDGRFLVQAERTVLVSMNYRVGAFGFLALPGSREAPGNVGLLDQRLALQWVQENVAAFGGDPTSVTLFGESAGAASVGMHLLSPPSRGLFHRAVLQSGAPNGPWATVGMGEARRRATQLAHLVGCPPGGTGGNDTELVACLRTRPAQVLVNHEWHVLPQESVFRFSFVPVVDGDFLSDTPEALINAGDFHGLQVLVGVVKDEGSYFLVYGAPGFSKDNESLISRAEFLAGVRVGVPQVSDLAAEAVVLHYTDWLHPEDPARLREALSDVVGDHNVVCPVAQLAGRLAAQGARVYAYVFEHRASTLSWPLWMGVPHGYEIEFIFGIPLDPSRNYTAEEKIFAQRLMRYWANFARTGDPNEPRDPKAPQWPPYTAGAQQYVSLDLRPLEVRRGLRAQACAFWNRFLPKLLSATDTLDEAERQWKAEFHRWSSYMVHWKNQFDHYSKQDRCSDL

[4] = physchem; conditions: PAMPA, pH 7.4
Description: Permeability of the compound at 100 uM at pH 7.4 measured after 6 hrs by PAMPA

[5] = Metal chelating activity assessed as compound-Cu2+ complex formation at 10 uM in presence of CuSO4 after 60 mins by UV-visible spectrophotometric analysis; type: functional
[6] = in vitro; conditions: human, primary hepatocytes
Description: Cytotoxicity against human primary hepatocytes assessed as cell viability at 0.1 uM measured after 2 hrs by trypan blue assay relative to control

[7] = molecular target: T1, Acetylcholinesterase; assay: Non-competitive inhibition of recombinant human AChE expressed in HEK293 cells using varying levels of acetylthiocholine iodide as substrate pretreated for 5 mins followed by substrate addition measured after 5 mins by Lineweaver-burk plot analysis
[8] = Metal chelating activity assessed as compound-Fe2+ complex formation at 10 uM in presence of FeSO4 after 20 hrs by UV-visible spectrophotometric analysis; type: functional
[9] = in vitro; conditions: human, primary hepatocytes; remark: listed apart in the source
Description: Cytotoxicity against human primary hepatocytes assessed as cell viability at 3 uM measured after 2 hrs by trypan blue assay relative to control

[10] = Metal chelating activity assessed as compound-Fe2+ complex formation at 10 uM in presence of FeSO4 after 60 mins by UV-visible spectrophotometric analysis; type: functional
[11] = in vitro; conditions: human, primary hepatocytes; remark: listed apart in the source
Description: Cytotoxicity against human primary hepatocytes assessed as cell viability at 10 uM measured after 2 hrs by trypan blue assay relative to control

[12] = in vitro; conditions: human, primary hepatocytes; remark: listed apart in the source
Description: Cytotoxicity against human primary hepatocytes assessed as cell viability at 30 uM measured after 2 hrs by trypan blue assay relative to control

[13] = Metal chelating activity assessed as compound-Cu2+ complex formation at 10 uM in presence of CuSO4 after 20 hrs by UV-visible spectrophotometric analysis; type: functional
[14] = in vitro; conditions: human, primary hepatocytes; remark: listed apart in the source
Description: Cytotoxicity against human primary hepatocytes assessed as cell viability at 1 uM measured after 2 hrs by trypan blue assay relative to control

[15] = in vitro; conditions: human, primary hepatocytes; remark: listed apart in the source
Description: Cytotoxicity against human primary hepatocytes assessed as cell viability at 100 uM measured after 2 hrs by trypan blue assay relative to control

Chain of Acetylcholinesterase (Electrophorus electricus, UniProt O42275) (O42275 whole entry): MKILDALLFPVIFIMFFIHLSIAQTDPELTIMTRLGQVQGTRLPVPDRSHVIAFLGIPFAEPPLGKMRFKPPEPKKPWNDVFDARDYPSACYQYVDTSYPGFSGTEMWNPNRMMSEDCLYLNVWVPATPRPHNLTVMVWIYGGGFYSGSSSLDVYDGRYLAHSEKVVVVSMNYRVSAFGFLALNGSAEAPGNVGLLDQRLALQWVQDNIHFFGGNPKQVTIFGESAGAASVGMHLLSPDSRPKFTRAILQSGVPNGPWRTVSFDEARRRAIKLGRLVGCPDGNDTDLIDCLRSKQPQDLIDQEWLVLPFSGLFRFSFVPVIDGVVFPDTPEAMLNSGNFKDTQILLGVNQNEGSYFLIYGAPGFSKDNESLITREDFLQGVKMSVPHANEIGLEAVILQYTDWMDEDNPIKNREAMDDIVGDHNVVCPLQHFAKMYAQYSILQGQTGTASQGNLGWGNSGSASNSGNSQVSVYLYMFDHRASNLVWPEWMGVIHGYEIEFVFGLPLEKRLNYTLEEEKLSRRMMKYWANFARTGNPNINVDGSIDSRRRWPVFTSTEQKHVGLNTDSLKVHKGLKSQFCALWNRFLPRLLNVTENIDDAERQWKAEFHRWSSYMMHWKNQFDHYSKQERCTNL

Nc1c2c(nc3c1C(c1ccc([N+](=O)[O-])cc1)c1ccc4cccnc4c1O3)CCCC2 (stereo not drawn)
pIC50 [1]: 6.62 | IC50 [2]: Not Active

Nc1c2c(nc3c1C(c1c(Cl)cccc1Cl)c1ccc4cccnc4c1O3)CCCC2 (stereo not drawn)
pIC50 [1]: 7.00 | IC50 [2]: Not Active

Nc1c2c(nc3c1C(c1ccccc1F)c1ccc4cccnc4c1O3)CCCC2 (stereo not drawn)
pIC50 [1]: 6.96 | pIC50 [2]: 6.20

Nc1c2c(nc3c1C(c1cccc(F)c1)c1ccc4cccnc4c1O3)CCCC2 (stereo not drawn)
pIC50 [1]: 7.05 | IC50 [2]: Not Active | pIC50 [3]: 5.66

Cc1ccc(C2c3ccc4cccnc4c3Oc3nc4c(c(N)c32)CCCC4)cc1 (stereo not drawn)
pIC50 [1]: 7.40 | pIC50 [2]: 6.28 | pIC50 [3]: 5.55

Nc1c2c(nc3c1C(c1ccccc1)c1ccc4cccnc4c1O3)CCCC2 (stereo not drawn)
pIC50 [1]: 7.22 | pIC50 [2]: 5.95 | pIC50 [3]: 5.76

Nc1c2c(nc3c1C(c1ccncc1)c1ccc4cccnc4c1O3)CCCC2 (stereo not drawn)
pIC50 [1]: 6.33 | IC50 [2]: Not Active | IC50 [3]: Not Active

COc1ccccc1C1c2ccc3cccnc3c2Oc2nc3c(c(N)c21)CCCC3 (stereo not drawn)
pIC50 [1]: 7.10 | pIC50 [2]: 5.82

COc1cccc(C2c3ccc4cccnc4c3Oc3nc4c(c(N)c32)CCCC4)c1 (stereo not drawn)
Papp at 6 h, 100 µM [4]: 5.41 ×10⁻⁶ cm/s | pIC50 [1]: 7.40 | Activity [5]: inactive | viability at 2 h, 0.1 µM [6]: 89% | pKi [7]: 6.06 | Activity [8]: inactive | viability at 2 h, 3 µM [9]: 83% | pIC50 [2]: 5.89 | Activity [10]: inactive | pIC50 [3]: 6.12 | viability at 2 h, 10 µM [11]: 89% | viability at 2 h, 30 µM [12]: 99% | Activity [13]: inactive | viability at 2 h, 1 µM [14]: 84% | viability at 2 h, 100 µM [15]: 89%

Nc1c2c(nc3c1C(c1cccnc1Br)c1ccc4cccnc4c1O3)CCCC2 (stereo not drawn)
pIC50 [1]: 6.72 | pIC50 [2]: 5.54 | IC50 [3]: Not Active

COc1ccc(C2c3ccc4cccnc4c3Oc3nc4c(c(N)c32)CCCC4)cc1 (stereo not drawn)
pIC50 [1]: 7.40 | pIC50 [2]: 5.89 | pIC50 [3]: 5.82

Nc1c2c(nc3c1C(c1ccccc1Br)c1ccc4cccnc4c1O3)CCCC2 (stereo not drawn)
pIC50 [1]: 6.85 | pIC50 [2]: 6.68
